# Source: PMC5577515, “Peptide‐Directed Binding for the Discovery of Modulators of α‐Helix‐Mediated Protein–Protein Interactions: Proof‐of‐Concept Studies with the Apoptosis Regulator Mcl‐1” (Angewandte Chemie (International Ed. in English), 2017)
# Like-named read-outs stand apart in the source and are kept apart here.
# Tests used:
# BxPC-3 cells [1] = assay: Annexin-V-FLUOS staining, phosphatidylserine externalization; type: cell-based; settings: 4 h, fluorescence microscopy
# Description: Figure 2 Representative small molecules induce hallmarks of apoptosis. A) Increase of caspase‐3 activation in BxPC‐3 cells 4 h after treatment. B) Externalization of phosphatidylserine, a hallmark of apoptosis, was evaluated by exposing BxPC‐3 cells to compounds 18 (25 μM), 20 (5 μM), 21 (5 μM), and 23 (25 μM) for 4 h followed by annexin‐V‐FLUOS. Images were taken at 10× magnification with a GFP filter (top) and white light (bottom). […]
# (§1) CUSTOM_[…] ("<1>=[N+]",("charge", 0, 2)) […]
# (§2) CUSTOM_[…] ("<1>=[N]=[N]",("bond",1,(2,3))) […]
# (§3) CUSTOM_[…] ("<1>([C]=[C])=[N][N]",("bond",1,(3,5))) […]
# (§4) The MiaPaCa-2 cell line, BxPC-3 cell line and AsPC-1 cell line were purchased from the European Collection of Cell Cultures (ECACC, Porton Down, UK). MiaPaCa-2 cells were cultured in DMEM media with 2 mM L-glutamine, 100 U/mL penicillin, 100 µg/mL streptomycin and 10% FCS.
# BxPC-3 cells and AsPC-1 cells were cultured in RPMI-1640 media containing 2 mM L-glutamine, 100 U/mL penicillin, 100 µg/mL streptomycin and 10% FCS. Cells were sub-cultured twice weekly and maintained at 37 °C and 5% CO2. […]
# An Annexin-V-FLUOS/Propidium iodide staining kit (Roche Applied Science) was used to detect phosphatidylserine externalization in pancreatic cancer cell line BxPC-3. Cells, seeded in clear 96- […]
# and treated with staining kit according to the manufacturer’s protocol. Fluorescence microscopy […]
# was used to examine cells and pictures taken with an inverted Leica DMII fluorescence microscope […]
# Caspase 3 activation assay […]
# AsPC-1 cells = assay: MTS cytotoxicity assay, AsPC-1; type: cell-based; settings: for IC50: 72 h, 37 °C, triplicate, at least three experiments, errors = transformed greater extreme of standard error, read-out: AsPC-1 cell growth inhibition IC50; for activity against AsPC-1 cells: at the concentrations evaluated (up to 100 μM), result in words
# Description: as §1, §2, §3, §4
# (§5) BxPC-3 cells and AsPC-1 cells were cultured in RPMI-1640 media containing 2 mM L-glutamine, 100 U/mL penicillin, 100 µg/mL streptomycin and 10% FCS. Cells were sub-cultured twice weekly and maintained at 37 °C and 5% CO2.
# (§6) The anti-proliferative activity of the compounds studied was assessed by MTS assay (Promega) following the manufacturer’s instructions. Cells were seeded at 5 x 103 / 100 μL in a 96-well plate and left untreated or treated with DMSO (vehicle control), or compounds 1-4 (100 μM – […], in well concentration) in triplicate for 72 h at 37 °C with 5% CO2. Following this, MTS assay reagent was added to each well and the plates incubated for 4 h at 37 °C with 5% CO2. The absorbance was measured at 492 nm using the BMG Labtech POLARstarOPTIMA microplate reader. […]
# MiaPaCa-2 cells = assay: MTS cytotoxicity assay, MiaPaCa-2; type: cell-based; settings: 72 h, 37 °C, triplicate, at least three experiments, errors = transformed greater extreme of standard error, SEM, read-out: MiaPaCa-2 cell growth inhibition IC50
# Description: as §1, §2, §3, §4, §5, §6
# Bcl-xL = target: T1, Bcl-xL (Homo sapiens, UniProt Q07817, DEL45-84); assay: Competitive FA assay, FITC-Bid displacement from Bcl-xL; type: binding; settings: 5 nM FITC-Bid, up to 100 µM compound
# T1 construct: The Bcl-xL protein used in our study is a truncated construction of the full-length protein, with; purchased Dundee Cell Product Ltd
# Description: (§7) were dissolved in PBS: 0.05% Tween -20 buffer at pH 7.4. Reagents were incubated for 30 min at room temperature prior to reading. Bubbles were removed and 8 data points were generated.
# (§8) (1 picture or pasted object on this page, not shown here)
# Inhibition screens were carried out using […]
# Mcl-1 = target: T2, Mcl-1 (UniProt P97287+Q07820); assay: Competitive fluorescence anisotropy (FA) assay, FITC-NoxaB displacement from Mcl-1; type: binding; settings: Table 2; inhibition of binding of 5 nM FITC-NoxaB to 10 nM Mcl-1; PBS, 0.05% Tween-20, pH 7.4; non-linear regression of at least three experiments; errors = transformed greater extreme of standard error; SEM; read-out: FA IC50
# T2 construct: amino acid residues 152-189 of mouse Mcl-1 fused with amino acid residues 209-327 of; 8 x His (N); TEV site (N); made in house; host or cells: E. coli BL21(DE3)pLysS
# Description: Fmoc, 9-fluorenylmethylcarbony. IC50 determined by non -linear regression of at least three experiments.
# 4. Fluorescence Anisotropy Binding Assay
# Fluorescence anisotropy was carried out on a BMG Labtech clariostar microplate reader with a fluorescence anisotropy optic measuring at 482/530 nm. Low -binding, Corning 96 -well black plates were used and all reagents used in the assay were biological grade and purchased from Sigma Aldrich and Novabioche m. All solutions were made using MilliQ water .
# Anisotropy values were automatically calculated using the following formula […]
# Where r = anisotropy, l a = parallel emission light, lb = perpendicular emission light and I = total […]
# KD was determined using GraphPad Prism Version 6.0 software, using the One Site – Total binding […]
# Where Bmax is the maximum specific binding, KD is the equilibrium binding constant, and NS is the slope of nonspecific binding. […]
# IC50 was determined using GraphPad Prism Version 6.0 software, using a four-parameter logistic model, according to precedent from Ottmann and co-workers.[5] Errors are the transformed greater extreme of the standard error. […]
# For binding each well contained 10 µL of Mcl -1 protein in 10-fold dilutions (0.37 pM to 3.7 µM) […]
# protein were dissolved in PBS: 0.05% Tween -20 buffer at pH 7.4. Reagents were incubated for 30 min at room temperature prior to reading. Bubbles were removed and 8 data points were generated.
# Figure S 1: Fluorescence Anisotropy direct titration.
# To confirm reproducibility of
# (µ) and standard deviations (σ) were inputted into the following equation:
# Inhibition screens were carried out using 10 nM Mcl -1, 5 nM fluorescently-tagged peptide and 100 µM of inhibitor. Compounds were dissolved in DMSO. […]
# control (DMSO) were used to define the mini mum and maximum values and ensure the assay was […]
# (1 picture or pasted object on this page, not shown here) […]
# Bubbles were removed and 8 data points were generated. […]
# Bcl-2 = target: T3, Bcl-2 (Homo sapiens, UniProt P10415, DEL35-91/INS34DVEENRTEAPEGTESE); assay: Competitive FA assay, FITC-Bid displacement from Bcl-2; type: binding; settings: 5 nM FITC-Bid, 30 nM Bcl-2; up to 100 µM compound
# T3 construct: The Bcl-2 protein used in our study has the same construction as that used in the work of Fesik; purchased Dundee Cell Product Ltd
# Description: For binding each well contained 10 µL of Bcl -2 protein in 10-fold dilutions (0.90 pM to 9.0 µM) […]
# as §7
# Figure S 3: Fluorescence Anisotropy direct titration. […] Normalized […]
# as §8
# BxPC-3 cells [2] = assay: MTS cytotoxicity assay, BxPC-3; type: cell-based; settings: 72 h, 37 °C, triplicate, at least three experiments, errors = transformed greater extreme of standard error, SEM, read-out: BxPC-3 cell growth inhibition IC50
# Description: as §1, §2, §3, §4, §5, §6
# T2 sequence (P97287 152-189 limits assumed): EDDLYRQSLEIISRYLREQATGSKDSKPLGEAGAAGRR
# T2 sequence (Q07820 209-327 limits assumed): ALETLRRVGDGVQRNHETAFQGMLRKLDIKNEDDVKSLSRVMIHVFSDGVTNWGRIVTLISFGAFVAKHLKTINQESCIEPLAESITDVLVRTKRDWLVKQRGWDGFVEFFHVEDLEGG
# T1 sequence (Q07817 with tags, fused parts or gaps DEL45-84): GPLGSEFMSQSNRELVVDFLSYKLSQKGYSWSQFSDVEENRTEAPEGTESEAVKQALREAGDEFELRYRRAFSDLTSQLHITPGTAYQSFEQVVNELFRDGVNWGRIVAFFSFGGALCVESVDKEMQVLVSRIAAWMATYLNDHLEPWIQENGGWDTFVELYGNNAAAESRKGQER
# T3 sequence (P10415 with tags, fused parts or gaps INS34DVEEN/V35R/G36T/A37E/P40E/DEL42-87/P88T/V89E/P90S/P91E): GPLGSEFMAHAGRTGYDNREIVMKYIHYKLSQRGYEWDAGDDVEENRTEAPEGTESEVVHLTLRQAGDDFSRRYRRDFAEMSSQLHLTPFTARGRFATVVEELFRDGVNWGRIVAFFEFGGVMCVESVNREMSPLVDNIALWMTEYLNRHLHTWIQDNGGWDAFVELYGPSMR
Compound,externalization of phosphatidylserine (annexin-V-FLUOS binding) (BxPC-3 cells [1]; 25 μM),IC50 (AsPC-1 cells) [µM],activity against AsPC-1 cells (AsPC-1 cells),IC50 (MiaPaCa-2 cells) [µM],binding to Bcl-xL in FA assay (Bcl-xL),IC50 (Mcl-1) [µM],binding to Bcl-2 in FA assay (Bcl-2),IC50 (BxPC-3 cells [2]) [µM],externalization of phosphatidylserine (annexin-V-FLUOS binding) (BxPC-3 cells [1]; 5 μM),IC50 (AsPC-1 cells; SEM) [µM]
COC(=O)C(Cc1cn(C23CC4CC(CC(C4)C2)C3)nn1)NC(=O)OCC1c2ccccc2-c2ccccc21 (centres unmarked) [Compound 18],induce the externalization of phosphatidylserine,> 100,ineffective,15.2 ± 0.75,no appreciable binding,0.186 ± 0.02,no appreciable binding,29.8 ± 4.15,,
COC(=O)C(Cc1cn(Cc2ccc(C#N)cc2)nn1)NC(=O)OCC1c2ccccc2-c2ccccc21 (centres unmarked) [Compound 20],,,,6.57 ± 3.92,,0.249 ± 0.051,,5.98 ± 1.14,induce the externalization of phosphatidylserine,2.04 ± 0.62
COC(=O)C(Cc1cn(Cc2ccc(Cl)cc2)nn1)NC(=O)OCC1c2ccccc2-c2ccccc21 (centres unmarked) [Compound 21],,> 100,ineffective,1.85 ± 3.17,no appreciable binding,1.26 ± 0.142,no appreciable binding,2.81 ± 0.4,induce the externalization of phosphatidylserine,
"COC(=O)[C@H](Cc1cn(Cc2ccccc2F)nn1)NC(=O)OCC1c2ccccc2-c2ccccc21 [Compound 23, methyl (S)-2-((((9H-fluoren-9-yl)methoxy)carbonyl)amino)-3-(1-(2-fluorobenzyl)-1H-1,2,3-triazol-4-yl)propanoate]",induce the externalization of phosphatidylserine,,,19.5 ± 1.35,,1.7 ± 0.23,,25.2 ± 2.66,,10.5 ± 1.53
